# Data: patent US8258311B2, “Human protein tyrosine phosphatase inhibitors and methods of use” (Aerpio Therapeutics Inc., priority 2006, dated 2012)
# Columns and labels:
# HPTPβ = HPTPβ (Homo sapiens, UniProt P23467); test: HPTPβ inhibition (IC50); type: biochemical
# PTP1B = target: T1, PTP1B (Homo sapiens, UniProt P18031); test: PTP1B inhibition (IC50); type: biochemical
# T1 sequence (P18031 1-435): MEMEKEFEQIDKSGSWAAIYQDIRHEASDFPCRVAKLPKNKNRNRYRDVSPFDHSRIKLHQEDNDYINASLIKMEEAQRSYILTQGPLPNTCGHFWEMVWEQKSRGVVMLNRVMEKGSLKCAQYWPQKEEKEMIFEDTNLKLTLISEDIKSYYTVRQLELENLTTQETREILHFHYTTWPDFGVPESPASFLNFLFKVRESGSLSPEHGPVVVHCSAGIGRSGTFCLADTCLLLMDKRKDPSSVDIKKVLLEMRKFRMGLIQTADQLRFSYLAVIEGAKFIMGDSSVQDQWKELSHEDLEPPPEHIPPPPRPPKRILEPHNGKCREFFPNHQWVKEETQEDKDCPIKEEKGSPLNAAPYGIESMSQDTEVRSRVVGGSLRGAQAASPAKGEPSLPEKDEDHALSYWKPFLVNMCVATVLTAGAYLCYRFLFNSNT
# Chain of HPTPβ (P23467 23-1997): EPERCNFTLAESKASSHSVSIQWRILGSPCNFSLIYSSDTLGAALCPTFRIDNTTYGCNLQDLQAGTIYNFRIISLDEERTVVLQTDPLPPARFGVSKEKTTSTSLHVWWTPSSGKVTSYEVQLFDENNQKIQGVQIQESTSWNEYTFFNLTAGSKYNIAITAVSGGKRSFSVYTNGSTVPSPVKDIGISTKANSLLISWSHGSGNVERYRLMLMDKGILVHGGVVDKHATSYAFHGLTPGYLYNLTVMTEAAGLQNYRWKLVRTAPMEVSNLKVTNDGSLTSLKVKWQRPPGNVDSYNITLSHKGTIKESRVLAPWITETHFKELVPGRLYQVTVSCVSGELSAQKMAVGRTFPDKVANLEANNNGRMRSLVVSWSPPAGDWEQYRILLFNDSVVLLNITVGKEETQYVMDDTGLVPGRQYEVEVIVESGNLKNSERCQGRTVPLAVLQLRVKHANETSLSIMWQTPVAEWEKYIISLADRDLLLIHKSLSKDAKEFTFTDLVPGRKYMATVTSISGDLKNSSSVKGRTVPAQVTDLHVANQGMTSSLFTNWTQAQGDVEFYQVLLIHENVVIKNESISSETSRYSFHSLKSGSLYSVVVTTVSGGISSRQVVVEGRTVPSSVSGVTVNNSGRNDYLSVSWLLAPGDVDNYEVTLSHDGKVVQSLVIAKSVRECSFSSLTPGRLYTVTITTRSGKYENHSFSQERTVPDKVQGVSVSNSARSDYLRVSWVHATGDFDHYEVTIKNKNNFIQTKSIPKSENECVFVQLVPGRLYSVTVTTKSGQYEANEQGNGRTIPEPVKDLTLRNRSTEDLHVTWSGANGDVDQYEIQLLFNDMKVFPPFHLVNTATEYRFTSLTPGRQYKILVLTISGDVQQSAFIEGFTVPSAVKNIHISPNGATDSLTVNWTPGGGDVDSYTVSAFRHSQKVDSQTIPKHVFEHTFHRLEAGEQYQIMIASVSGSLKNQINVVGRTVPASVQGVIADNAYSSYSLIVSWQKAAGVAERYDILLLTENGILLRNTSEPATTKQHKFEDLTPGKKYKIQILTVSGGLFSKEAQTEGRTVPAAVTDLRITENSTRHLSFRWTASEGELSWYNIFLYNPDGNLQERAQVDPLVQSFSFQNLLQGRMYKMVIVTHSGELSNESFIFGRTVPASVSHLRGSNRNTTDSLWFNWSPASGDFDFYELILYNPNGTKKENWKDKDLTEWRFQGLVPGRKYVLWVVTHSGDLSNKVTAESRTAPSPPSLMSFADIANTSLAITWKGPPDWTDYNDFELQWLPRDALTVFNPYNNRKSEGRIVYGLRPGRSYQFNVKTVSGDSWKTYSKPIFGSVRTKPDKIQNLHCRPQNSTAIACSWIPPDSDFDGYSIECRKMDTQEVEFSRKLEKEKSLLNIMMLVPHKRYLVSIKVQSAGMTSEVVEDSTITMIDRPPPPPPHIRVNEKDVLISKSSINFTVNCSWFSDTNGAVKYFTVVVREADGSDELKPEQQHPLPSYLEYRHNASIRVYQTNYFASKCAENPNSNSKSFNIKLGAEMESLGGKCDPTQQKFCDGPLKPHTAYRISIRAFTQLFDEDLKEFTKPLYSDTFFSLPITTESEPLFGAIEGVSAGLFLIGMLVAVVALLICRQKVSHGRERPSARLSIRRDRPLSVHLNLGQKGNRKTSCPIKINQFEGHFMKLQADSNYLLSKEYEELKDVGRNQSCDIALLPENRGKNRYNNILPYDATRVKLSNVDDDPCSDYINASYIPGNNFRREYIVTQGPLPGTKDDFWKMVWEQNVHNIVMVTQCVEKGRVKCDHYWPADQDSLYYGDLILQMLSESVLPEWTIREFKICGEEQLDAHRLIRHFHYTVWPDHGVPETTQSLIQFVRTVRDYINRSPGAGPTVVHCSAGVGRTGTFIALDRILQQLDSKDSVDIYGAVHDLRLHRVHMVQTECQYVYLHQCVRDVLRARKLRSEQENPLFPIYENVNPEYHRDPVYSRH
IC50 (HPTPβ) [nM],IC50 (PTP1B) [nM],SMILES
0.162,490,CCc1csc([C@H](Cc2ccc(NS(=O)(=O)O)cc2)NC(=O)[C@H](Cc2ccccc2)NC(=O)OC)n1 [4-{(S)-2-(4-Ethylthiazol-2-yl)-2-[(S)-2-(methoxycarbonylamino)-3-phenylpropanamido]ethyl}phenylsulfamic acid]
0.3,70,CCc1csc([C@H](Cc2ccc(NS(=O)(=O)O)cc2)NC(=O)[C@H](CC(C)C)NC(=O)OC)n1 [4-{(S)-2-(4-Ethylthiazol-2-yl)-2-[(S)-2-(methoxycarbonylamino)-4-methylpentanamido]ethyl}phenylsulfamic acid]
0.2,708,COC(=O)N[C@@H](Cc1ccccc1)C(=O)N[C@@H](Cc1ccc(NS(=O)(=O)O)cc1)c1nc(C(C)(C)C)cs1 [4-{(S)-2-(4-tert-Butylthiazol-2-yl)-2-[(S)-2-(methoxycarbonylamino)-3-phenylpropanamido]ethyl}phenylsulfamic acid]
1,180,"COC(=O)N[C@@H](Cc1ccccc1)C(=O)N[C@@H](Cc1ccc(NS(=O)(=O)O)cc1)c1nc2c(s1)CCC2 [4-{(S)-2-(5,6-Dihydro-4H-cyclopenta[d]thiazol-2-yl)-2-[(S)-2-(methoxycarbonylamino)-3-phenylpropanamido]ethyl}phenylsulfamic acid]"
0.24,1160,CC(=O)N[C@@H](Cc1ccccc1)C(=O)N[C@@H](Cc1ccc(NS(=O)(=O)O)cc1)c1nc(-c2ccsc2)cs1 [4-{(S)-2-((S)-2-Acetamido-3-phenylpropanamido)-2-[4-(thiophen-3-yl)thiazol-2-yl]ethyl}phenylsulfamic acid]
2,1210,COC(=O)N[C@@H](Cc1ccccc1)C(=O)N[C@@H](Cc1ccc(NS(=O)(=O)O)cc1)c1csc(CS(=O)(=O)C(C)(C)C)n1 [4-{(S)-2-[2-(tert-Butylsulfonylmethyl)thiazol-4-yl]-2-[(S)-2-(methoxycarbonylamino)-3-phenylpropanamido]ethyl}phenylsulfamic acid]
0.14,680,CCOC(=O)N[C@@H](Cc1ccccc1)C(=O)N[C@@H](Cc1ccc(NS(=O)(=O)O)cc1)c1nc(CC)cs1 [4-{(S)-2-[(S)-2-(Ethoxycarbonylamino)-3-phenylpropanamido]-2-(4-ethylthiazol-2-yl)ethyl}phenylsulfamic acid]
0.08,120,"COC(=O)N[C@@H](Cc1ccccc1)C(=O)N[C@@H](Cc1ccc(NS(=O)(=O)O)cc1)c1nc(CCC(F)(F)F)cs1 [4-{(S)-2-[(S)-2-(Methoxycarbonylamino)-3-phenylpropanamido)-2-[4-(3,3,3-trifluoropropyl)thiazol-2-yl]ethyl}phenylsulfamic acid]"
0.1,1010,CCc1nc([C@H](Cc2ccc(NS(=O)(=O)O)cc2)NC(=O)[C@H](Cc2ccccc2)NC(=O)OC)cs1 [4-{(S)-2-[(S)-2-(Methoxycarbonylamino)-3-phenylpropanamido]-2-(2-ethylthiazol-4-yl)ethyl}phenylsulfamic acid]
1,1160,COC(=O)N[C@@H](Cc1ccccc1)C(=O)N[C@@H](Cc1ccc(NS(=O)(=O)O)cc1)c1csc(C)n1 [4-{(S)-2-[(S)-2-(Methoxycarbonylamino)-3-phenylpropanamido]-2-(2-methylthiazol-4-yl)ethyl}phenylsulfamic acid]
0.4,89,"COC(=O)N[C@@H](Cc1ccccc1)C(=O)N[C@@H](Cc1ccc(NS(=O)(=O)O)cc1)c1nc2c(s1)CCCC2 [4-{(S)-2-[(S)-2-(Methoxycarbonylamino)-3-phenylpropanamido]-2-(4,5,6,7-tetrahydrobenzo[d]thiazol-2-yl)ethyl}phenylsulfamic acid]"
1,480,COC(=O)N[C@@H](Cc1ccccc1)C(=O)N[C@@H](Cc1ccc(NS(=O)(=O)O)cc1)c1nc(C)cs1 [4-{(S)-2-[(S)-2-(Methoxycarbonylamino)-3-phenylpropanamido]-2-(4-methylthiazol-2-yl)ethyl}phenylsulfamic acid]
0.1,1030,CCCc1csc([C@H](Cc2ccc(NS(=O)(=O)O)cc2)NC(=O)[C@H](Cc2ccccc2)NC(=O)OC)n1 [4-{(S)-2-[(S)-2-(Methoxycarbonylamino)-3-phenylpropanamido]-2-(4-propylthiazol-2-yl)ethyl}phenylsulfamic acid]
0.3,810,COC(=O)N[C@@H](Cc1ccccc1)C(=O)N[C@@H](Cc1ccc(NS(=O)(=O)O)cc1)c1ncc(-c2ccccc2)s1 [4-{(S)-2-[(S)-2-(Methoxycarbonylamino)-3-phenylpropanamido]-2-(5-phenylthiazol-2-yl)ethyl}phenylsulfamic acid]
6,1020,COC(=O)N[C@@H](Cc1ccccc1)C(=O)N[C@@H](Cc1ccc(NS(=O)(=O)O)cc1)c1nccs1 [4-{(S)-2-[(S)-2-(Methoxycarbonylamino)-3-phenylpropanamido]-2-(thiazol-2-yl)ethyl}phenylsulfamic acid]
3,295,COC(=O)N[C@@H](Cc1ccccc1)C(=O)N[C@@H](Cc1ccc(NS(=O)(=O)O)cc1)c1csc(-c2cnccn2)n1 [4-{(S)-2-[(S)-2-(Methoxycarbonylamino)-3-phenylpropanamido]-2-[2-(pyrazin-2-yl)thiazol-4-yl]ethyl}phenylsulfamic acid]
0.3,1630,"COC(=O)N[C@@H](Cc1ccccc1)C(=O)N[C@@H](Cc1ccc(NS(=O)(=O)O)cc1)c1nc(CC(F)(F)F)cs1 [4-{(S)-2-[(S)-2-(Methoxycarbonylamino)-3-phenylpropanamido]-2-[4-(2,2,2-trifluoroethyl)thiazol-2-yl]ethyl}phenylsulfamic acid]"
1,640,COCc1csc([C@H](Cc2ccc(NS(=O)(=O)O)cc2)NC(=O)[C@H](Cc2ccccc2)NC(=O)OC)n1 [4-{(S)-2-[(S)-2-(Methoxycarbonylamino)-3-phenylpropanamido]-2-[4-(methoxymethyl)thiazol-2-yl]ethyl}phenylsulfamic acid]
0.09,440,COC(=O)N[C@@H](Cc1ccccc1)C(=O)N[C@@H](Cc1ccc(NS(=O)(=O)O)cc1)c1nc(-c2ccsc2)cs1 [4-{(S)-2-[(S)-2-(Methoxycarbonylamino)-3-phenylpropanamido]-2-[4-(thiophen-3-yl)thiazol-2-yl]ethyl}phenylsulfamic acid]
0.08,2540,COC(=O)N[C@@H](Cc1ccccc1)C(=O)N[C@@H](Cc1ccc(NS(=O)(=O)O)cc1)c1csc(CS(=O)(=O)c2ccc(Cl)cc2)n1 [4-{(S)-2-{2-[(4-Chlorophenylsulfonyl)methyl]thiazol-4-yl}-2-[(S)-2-(methoxycarbonylamino)-3-phenylpropanamido]ethyl}phenylsulfamic acid]
132,50000,COc1cccc(Cc2csc([C@H](Cc3ccc(NS(=O)(=O)O)cc3)NC(=O)C(C)(C)C)n2)c1 [(S)-4-(2-(4-(3-Methoxybenzyl)thiazol-2-yl)-2-pivalamidoethyl)phenylsulfamic acid]
381,28600,CC(C)(C)C(=O)N[C@@H](Cc1ccc(NS(=O)(=O)O)cc1)c1nc(-c2ccc(-c3ccccc3)cc2)cs1 [(S)-4-(2-(4-(Biphen-4-yl)thiazol-2-yl)-2-pivalamidoethyl)phenylsulfamic acid]
113,38200,CC(C)(C)C(=O)N[C@@H](Cc1ccc(NS(=O)(=O)O)cc1)c1nc(Cc2ccccc2)cs1 [(S)-4-(2-(4-Benzylthiazol-2-yl)-2-pivalamidoethyl)phenylsulfamic acid]
85,142000,CCc1csc([C@H](Cc2ccc(NS(=O)(=O)O)cc2)NC(=O)C(C)(C)C)n1 [(S)-4-(2-(4-Ethylthiazol-2-yl)-2-pivalamidoethyl)phenyl-sulfamic acid]
42,82300,CC(C)(C)C(=O)N[C@@H](Cc1ccc(NS(=O)(=O)O)cc1)c1nc(-c2ccccc2)cs1 [(S)-4-(2-(4-Phenylthiazol-2-yl)-2-pivalamidoethyl)phenylsulfamic acid]
98,50500,Cc1sc([C@H](Cc2ccc(NS(=O)(=O)O)cc2)NC(=O)C(C)(C)C)nc1-c1ccccc1 [(S)-4-(2-(5-Methyl-4-phenylthiazol-2-yl)-2-pivalamidoethyl)phenylsulfamic acid]

SMILES,IC50 (HPTPβ) [nM],IC50 (PTP1B) [nM]
CCc1csc([C@H](Cc2ccc(NS(=O)(=O)O)cc2)NC(=O)[C@@H](Cc2ccccc2)NC(=O)OC(C)(C)C)n1 [4-{(S)-2-[(R)-2-(tert-butoxycarbonylamino)-3-phenylpropanamido]-2-(4-ethylthiazol-2-yl)ethyl}phenylsulfamic acid],4,7120
CCc1csc([C@H](Cc2ccc(NS(=O)(=O)O)cc2)NC(=O)[C@H](CC(C)C)NC(=O)OC(C)(C)C)n1 [4-{(S)-2-[(S)-2-(tert-Butoxycarbonylamino)-4-methylpentanamido]-2-(4-ethylthiazol-2-yl)ethyl}phenylsulfamic acid],1,480
CC(C)(C)OC(=O)N[C@@H](Cc1ccc(NS(=O)(=O)O)cc1)c1nc(CO)cs1 [(S)-4-(2-(tert-Butoxycarbonylamino)-2-(4-(hydroxymethyl)thiazol-2-yl)ethyl)phenylsulfamic acid],644,31600
